Legend:
CYP2C9 = CYP2C9 (Homo sapiens, UniProt P11712); test: Inhibition of CYP2C9 (unknown origin) at 3 uM; type: ADME
Progesterone receptor = target: T1, Progesterone receptor (Homo sapiens, UniProt P06401); test: Antagonist activity at PR (unknown origin)
T1 sequence (P06401 whole entry): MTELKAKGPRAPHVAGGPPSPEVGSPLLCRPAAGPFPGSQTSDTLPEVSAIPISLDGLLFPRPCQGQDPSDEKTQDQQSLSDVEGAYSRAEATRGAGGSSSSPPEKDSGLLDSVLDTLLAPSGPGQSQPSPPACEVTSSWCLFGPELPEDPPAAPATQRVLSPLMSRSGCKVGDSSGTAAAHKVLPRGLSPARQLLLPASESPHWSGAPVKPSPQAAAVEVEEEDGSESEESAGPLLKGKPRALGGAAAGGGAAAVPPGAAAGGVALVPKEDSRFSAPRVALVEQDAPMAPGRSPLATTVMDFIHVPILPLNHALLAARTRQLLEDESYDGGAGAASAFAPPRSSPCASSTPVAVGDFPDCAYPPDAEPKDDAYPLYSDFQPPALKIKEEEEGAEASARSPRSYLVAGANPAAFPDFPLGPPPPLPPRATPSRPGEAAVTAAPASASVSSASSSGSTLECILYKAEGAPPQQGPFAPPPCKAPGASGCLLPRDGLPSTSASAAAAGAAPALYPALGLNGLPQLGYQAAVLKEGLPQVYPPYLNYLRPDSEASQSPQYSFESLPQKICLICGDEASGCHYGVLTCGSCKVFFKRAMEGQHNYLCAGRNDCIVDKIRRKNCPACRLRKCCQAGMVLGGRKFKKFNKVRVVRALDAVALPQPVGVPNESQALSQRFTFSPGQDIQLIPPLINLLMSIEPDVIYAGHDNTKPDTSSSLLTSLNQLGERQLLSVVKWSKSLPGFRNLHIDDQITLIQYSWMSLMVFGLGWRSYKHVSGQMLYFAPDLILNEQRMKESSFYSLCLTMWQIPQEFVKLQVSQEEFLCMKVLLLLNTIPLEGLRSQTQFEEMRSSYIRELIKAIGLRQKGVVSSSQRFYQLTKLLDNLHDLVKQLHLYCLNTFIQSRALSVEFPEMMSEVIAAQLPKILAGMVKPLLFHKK

[1] = Dissociation constant, pKa of the compound; type: physicochemical

CYP2C9, sequence (P11712 whole entry): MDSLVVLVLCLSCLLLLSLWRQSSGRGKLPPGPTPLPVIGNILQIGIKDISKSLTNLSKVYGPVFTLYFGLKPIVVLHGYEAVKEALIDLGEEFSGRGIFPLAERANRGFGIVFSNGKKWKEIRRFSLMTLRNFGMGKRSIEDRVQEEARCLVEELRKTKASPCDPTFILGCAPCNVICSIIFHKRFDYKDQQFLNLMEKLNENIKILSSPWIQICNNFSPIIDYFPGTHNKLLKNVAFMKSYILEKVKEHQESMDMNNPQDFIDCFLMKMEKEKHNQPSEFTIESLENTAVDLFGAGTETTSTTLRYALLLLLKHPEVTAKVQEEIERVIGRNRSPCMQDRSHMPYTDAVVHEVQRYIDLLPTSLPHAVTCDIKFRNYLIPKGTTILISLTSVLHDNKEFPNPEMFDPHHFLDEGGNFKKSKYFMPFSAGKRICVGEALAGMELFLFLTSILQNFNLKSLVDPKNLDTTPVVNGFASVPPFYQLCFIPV

## COc1cc(NS(=O)(=O)C(F)(F)F)cc(OC)c1Oc1ccc(C#N)c(Cl)c1
CYP2C9
  inhibition at 3 µM: 95%
Progesterone receptor
  IC50: 175 nM
[1]
  pKa: 4.5

## N#Cc1ccc(O[C@H]2CC[C@H](NS(=O)(=O)C(F)(F)F)CC2)cc1Cl
CYP2C9
  inhibition at 3 µM: 77%
Progesterone receptor
  IC50: 43 nM

## CS(=O)(=O)N[C@H]1CC[C@H](Oc2ccc(C#N)c(Cl)c2)CC1
CYP2C9
  inhibition at 3 µM: 0%
Progesterone receptor
  IC50: 107 nM

## COc1cc(NS(C)(=O)=O)cc(OC)c1Oc1ccc(C#N)c(Cl)c1
CYP2C9
  inhibition at 3 µM: 9%
Progesterone receptor
  IC50: 26 nM
[1]
  pKa: 8.5

Source: ChEMBL document CHEMBL3817830, “Discovery of a novel binding pocket for CYP 2C9 inhibitors: crystallography, pharmacophore modelling and inhibitor SAR” (Medchemcomm, 2016)
